Converted amounts (≈) assume the structure as drawn. Bridge positions count the residues as written; N and C are the ends. Peptide text beside a SMILES is read from it.
Assays:
C. albicans 43001 = experiment: MIC/MFC, broth microdilution (modified CLSI M27-A2); assay type: cell-based
Method: (§1) C. albicans strains were tested against RTD-1, fluconazole, and caspofungin in microdilution broth in accordance with Clinical and Laboratory Standards Institute (CLSI) document M27-A2 with the exception that 25 mM MOPS was used in place of 165 mM MOPS, as described previously. Overnight cultures were harvested by centrifugation, washed twice with Ca^2+ and Mg^2+-free PBS, pH 7.2, and suspended in test medium (RPMI 1640 medium, 25 mM MOPS, 2 mM L-glutamine) at 10^4 CFU/ml[62]. Incubations were conducted in flat bottom, 96-well microtiter plates (Greiner bio-one, Monroe, NC) containing 0.2 ml test medium per well. Duplicate 0.1 ml aliquots of serial two-fold dilutions of peptides and antifungal drugs were dispensed into wells, each of which was inoculated with 0.1 ml of fungal cell suspension containing 1 × 10^3 CFU. Plates were incubated at 30 °C for 48 hours after which A600 was determined using a SpectraMax M5e plate reader.
(§2) Minimal fungicidal concentration (MFC) was determined by plating, on YPD plates, 10 µl from wells in MIC assay without cell growth and the first well with measurable turbidity as described[63]–[66] and corresponding aliquots from the no-agent controls. […] MFC is reported as the lowest concentration of peptide or antifungal drug that killed ≥99% of the input organisms.
(§3) MICs and MFCs of RTD-1 were also performed in the presence of 50% mouse serum. Serum was prepared from blood collected by cardiac puncture from BALB/c mice. After coagulation at room temperature, serum was collected by centrifugation (200 g for 10 min followed by 23,000 g for 15 min), and diluted with an equal volume of yeast inoculum in MIC test medium described above.

C. albicans 53264 = experiment: as above; assay type: cell-based
Method: as §1, §2, §3

C. albicans SC5314 = experiment: as above; assay type: cell-based; settings: Candida albicans
Method: as §1, §2, §3

[1] = test system: C. albicans SC5314, 43001 and 53264; experiment: MIC/MFC, summary statements over the three strains; assay type: cell-based
Method: as §1
Minimal fungicidal concentration (MFC) was determined by plating, on YPD plates, 10 µl from wells in MIC assay without cell growth and the first well with measurable turbidity as described[63]–[66] and corresponding aliquots from the no-agent controls. Under MIC incubation conditions, no filamentation occurred allowing for accurate CFU counts after plating on YPD plates which were incubated for 24 h at 30 °C. […]

[2] = RTD-1 tolerability/toxicity in naive mice; assay type: in vivo, BALB/c mice
Method: RTD-1 tolerability/toxicity was evaluated by i.p. dosing of naÏve BALB/c mice with RTD-1 at 5 mg/kg RTD-1 daily for 7 days, 20 mg/kg every other day for 10 days, and once at 50 mg/kg.

[3] = RTD-1 plasma pharmacokinetics
Method: RTD-1 plasma levels were also analyzed 60 or 240 min after additional daily 5 mg/kg i.p. doses administered up to 6 days.
Single dose PK of RTD-1 was evaluated by quantifying plasma peptide concentrations at intervals following 5 mg/kg bolus injections administered i.v. and i.p. to CD-1 mice. At indicated intervals, plasma was prepared from EDTA-anticoagulated blood collected aseptically by terminal cardiac puncture. Plasma was diluted 1:10 or 1:20 into 5% formic/5% acetonitrile. RTD-1 plasma concentrations were determined by reverse-phase liquid chromatography (XBridge phenyl 3.5 µm column, Waters) on an Acquity H-Class UPLC (Waters) with tandem electrospray mass spectroscopy on a Xevo TQ-S running MassLynx V4.1 (Waters). Quantitative mass spectroscopy was performed by multiple-reaction monitoring transition 417.38 > 517.14, with area under the curve determined by TargetLynx (Waters). Pharmacokinetic modeling of intravenous RTD-1 concentration-time data was performed with ADAPT (version 5) software using the naïve pooled data approach. One- and two-compartment models were evaluated. Model selection was based on the Akaike information criterion (AIC) and the Bayesian information criterion (BIC) scores, the likelihood ratio test (LRT), and goodness-of-fit plots. […] Area under the curve (AUC24) was calculated by taking the average of RTD-1 concentrations at each time point and applying the linear trapezoidal method. Bioavailability (F) for i.p. injection was determined using the ratio of AUCs from i.p. and i.v.

C. albicans = settings: planktonic cells; cited from earlier work
Description: RTD-1 is the prototype θ-defensin, the only known backbone cyclized polypeptides in the Animal Kingdom. All natural θ-defensin isoforms are 18-amino acid macrocycles stabilized by a six cysteine, tridisulfide core. […] As reported here and elsewhere, RTD-1 kills Candida ...

[4] = test system: host and fungal proteases; settings: cited from earlier work
[5] = cited from earlier work
[6] = 5 mg/kg i.v., two-compartment model, mean

Question: Which results are given for CC[C@H](C)C[C@H](C)CCCCCCCCC(=O)N[C@H]1C[C@@H](O)[C@@H](NCCN)NC(=O)[C@@H]2[C@@H](O)CCN2C(=O)[C@H]([C@H](O)CCN)NC(=O)[C@H]([C@H](O)[C@@H](O)c2ccc(O)cc2)NC(=O)[C@@H]2C[C@@H](O)CN2C(=O)[C@H]([C@@H](C)O)NC1=O [Caspo, caspofungin]?
Answer: MIC (C. albicans 43001; Candida albicans, 43001, RPMI 1640, 25 mM MOPS, 2 mM L-glutamine, 1 × 10^3 CFU/well, 30 °C, 48 h, A600, complete inhibition of growth, duplicate, read-out: MIC): 2 µg/mL (≈ 1.83 µM); MFC (C. albicans 43001; Candida albicans, 43001, RPMI, plating of MIC wells on YPD, ≥99% killing of input inoculum): 2 µg/mL (≈ 1.83 µM); resistance relative to drug sensitive SC5314 (C. albicans 43001; strain 43001 vs SC5314, RPMI): 33 fold; MIC (C. albicans 53264; Candida albicans, 53264, RPMI 1640, 25 mM MOPS, 2 mM L-glutamine, 1 × 10^3 CFU/well, 30 °C, 48 h, A600, complete inhibition of growth, duplicate, read-out: MIC): > 8 µg/mL; MFC (C. albicans 53264; Candida albicans, 53264, RPMI, plating of MIC wells on YPD, ≥99% killing of input inoculum): > 8 µg/mL; resistance relative to drug sensitive SC5314 (C. albicans 53264; strain 53264 vs SC5314, RPMI): > 133 fold; MIC (C. albicans SC5314; RPMI 1640, 25 mM MOPS, 2 mM L-glutamine, 1 × 10^3 CFU/well, 30 °C, 48 h, A600, complete inhibition of growth, duplicate): 0.06 µg/mL (≈ 0.0549 µM); MFC (C. albicans SC5314; RPMI, plating of MIC wells on YPD, ≥99% killing of input inoculum): 0.25 µg/mL (≈ 0.229 µM)

Question: What does the source list for CC[C@H](C)[C@@H]1NC(=O)[C@@H]2CSSC[C@H](NC(=O)[C@H](CCCNC(=N)N)NC(=O)[C@@H]3CSSC[C@H](NC1=O)C(=O)N[C@@H]([C@@H](C)O)C(=O)N[C@@H](CCCNC(=N)N)C(=O)NCC(=O)N[C@@H](Cc1ccccc1)C(=O)N3)C(=O)N[C@@H](CC(C)C)C(=O)N[C@H]1CSSC[C@H](NC(=O)[C@H](C(C)C)NC(=O)CNC(=O)[C@H](CCCNC(=N)N)NC(=O)[C@H](CCCNC(=N)N)NC1=O)C(=O)N[C@@H](CCCNC(=N)N)C(=O)N2 [RTD-1, Rhesus theta (θ) defensin-1] (cyclo(GFCRCLCRRGVCRCICTR); disulfide 3-16, 5-14, 7-12 (inferred); ring closure inferred)?
Answer: MFCs as multiple of the MICs ([1]; RPMI): 1–2 × the MICs; antifungal activity against blastospores in 50% mouse serum ([1]; peptide concentrations up to 100 µg/ml): inactive; tolerability ([2]; i.p. 5 mg/kg daily for 7 days, 20 mg/kg every other day for 10 days, once 50 mg/kg, observation at least 14 days): tolerated RTD-1 dosing at all levels; toxicity ([2]; summary statement (Results)): non-toxic; CLd, distributional clearance [3, 6]: 3.248 mL/h; K10, elimination rate constant from the central compartment [3, 6]: 0.9719 h⁻¹; T1/2-λ1, distribution half-life [3, 6]: 0.5676 h; Vc, central volume of distribution [3, 6]: 14.58 mL; Vp, peripheral volume [3, 6]: 24.88 mL; λ1, distribution rate constant [3, 6]: 1.221 h⁻¹; λ2, terminal rate constant [3, 6]: 0.1039 h⁻¹; accumulation in plasma ([3]; daily 5 mg/kg i.p. doses up to 6 days, levels 60 or 240 min after dose): did not accumulate in plasma; Cmax ([3]; mouse, in vivo, ip, 5 mg/kg): 670 ng/mL; Tmax ([3]; mouse, in vivo, ip, 5 mg/kg): 4 h; bioavailability ([3]; mouse, in vivo, ip, 5 mg/kg): 63.4%; clearance ([3]; mouse, in vivo, iv, 5 mg/kg): 0.236 mL/min; half-life ([3]; mouse, in vivo, iv, 5 mg/kg): 6.67 h; time to permeabilization of C. albicans to propidium iodide (C. albicans): < 10 min; stability to fungal proteases [4]: highly stable; stability to host proteases [4]: highly stable; immunogenicity [5]: non-immunogenic
